In data set [1] the test system is antigen-induced swelling reaction in a mouse ear. Kind of data set: Suppressive action against antigen-induced swelling reaction in a mouse ear. The format is in vivo, BALB/c female mice. How it is done: (§1) Seven week old BALB/c female (SPF) mice of were selected as subjects. According to a method of Tanaka, et al. (Allergy, 46, pages 42-48(1997)), egg white albumin (final concentration: 2 μg/mL) and aluminum hydroxide gel (final concentration: 10 mg/mL) were suspended in physiological saline and 0.5 mL of the suspension was administered to effect intraperitoneal sensitization on the first day of the test. On the 14th day of the test, an additional sensitization was carried out under the same conditions. Further, on the 28th day of the test, 25 μL of egg albumin (a 20 μg/mL solution in physiological saline) was intradermally administered to the right ear of a mouse to induce a swelling reaction.
(§2) This swelling reaction reached its peak at 4 hours after the challenge by the antigen. Even after 24 to 48 hours, a significant swelling reaction was noted as compared with the control in which antigen was merely challenged (not sensitized). […] On the contrary, the swelling from 24 to 48 hours after the challenge is thought to be the so-called delayed-type swelling reaction accompanied by infiltration of eosinophils, neutrophils and lymphocytes. In addition, a flare-up reaction having a peak at 24 hours after the challenge appeared on the ear of the antigen-induced site. Like swelling, flare-up is an important symptom of inflammation. Although the mechanism of the flare-up reaction is ambiguous, it may be a flare-up reaction of a delayed type in view of the time course of its expression. As such, this model animal in which the inflammation of both immediate and delayed types are induced is appropriate as a model animal for atopic dermatitis. In the following experiment, the effectiveness of the therapeutic agent for dermatitis according to the present invention was tested using the said model animal.
Each of a vehicle (control) and a test agent (containing the compound of the present invention or a positive control) was applied to the antigen-induced site (right auricle) of a mouse. A swelling reaction was induced in accordance with Example 2 at 2 hours before and 4 hours after the challenge. After the challenge, the thickness of the swelling induced ear was measured by a Dial Thickness Gauge (manufactured by Ozaki Seisakusho). The intensity of the reaction was expressed in terms of an increase in the auricle thickness by deducting the thickness (early value) measured before the challenge from the thickness of the swelling induced ear. The suppression rate of the test drug for ear swelling was calculated by the following formula:
Suppression Rate (%)=100 ×[(Ear Thickness Increase of Vehicle-Only-Control)—(Ear Thickness Increase of the Test Group)]/[(Ear Thickness Increase of the Vehicle-Only-Control)—(Ear Thickness Increase of the Challenge-Only-Group)]

The next data set relates to ear of a normal mouse. Briefly: Influence of repeated application on the ear thickness of a normal mouse. It counts as in vivo. The procedure: The therapeutic agent for dermatitis according to the present invention or the positive control (steroid preparation) was applied twice daily to the right ear of a normal mouse for a total of nine times and, 2 hours after the final application, the thickness of the ear was measured.

Data set [2] deals with antigen-induced flare-up reaction in a mouse. Briefly: Suppressive action against antigen-induced flare-up reaction in a mouse. It counts as in vivo, BALB/c female mice. The following applies: 0.12% ointment. How it is done:
as §1, §2
Each of a vehicle (control) and an agent for the test (the therapeutic agent for dermatitis according to the present invention or a positive control) was applied to the antigen-induced site (right auricle) of a mouse to induce a swelling reaction in accordance with Example 2 at 2 hours before and 4 hours after the challenge. The right ear was observed by naked eye and the degree of flare-up was scored according to the following standard:
1: in such a degree that a flare-up was confirmed, the color is clear red or pale red and the size was small
2: between score 3 and score 1
3: color of the flare-up was clearly red and the size of the flare-up was big

Setting [3] is: Table 1, 0.12% ointment, 1 hr after challenge.
Where [4] appears, read: Table 1, 0.12% ointment, 8 hr after challenge.
The mark [5] stands for this setting: Table 1, 0.12% ointment, 24 hr after challenge.
[6] abbreviates: Table 1, 0.12% ointment, 48 hr after challenge.
[7] abbreviates: Table 2, 0.12% ointment, 24 hr after challenge.
Setting [8] is: Table 2, 1% ointment, 24 hr after challenge.
[9] abbreviates: Table 2, 3% ointment, 24 hr after challenge.

Turning to `CCCCC(=O)O[C@]1(C(=O)CO)[C@@H](C)C[C@H]2[C@@H]3CCC4=CC(=O)C=C[C@]4(C)[C@@]3(F)[C@@H](O)C[C@@]21C` [Positive Control, betamethasone valerate, reference compound], in data set [1] (setting [3]), the “Ear Thickness Increase at 1 hr after Challenge” value was 8.3 ± 0.7 × 0.01 mm and the “Suppression Rate of ear thickness increase at 1 hr after Challenge” value is “(45.5%)”. For the same molecule, in data set [1] (Table 1, 0.12% ointment), the “Ear Thickness Increase at 4 hr after Challenge” value amounted to 16.3 ± 2.0 × 0.01 mm and the “Suppression Rate of ear thickness increase at 4 hr after Challenge” value is reported as “(42.0%)”. Besides, in data set [1] (setting [4]), the “Ear Thickness Increase at 8 hr after Challenge” value stood at 2.0 ± 1.2 × 0.01 mm and the “Suppression Rate of ear thickness increase at 8 hr after Challenge” value is listed as “(49.7%)”. Further, in data set [1] (setting [5]), the “Ear Thickness Increase at 24 hr after Challenge” value is 5.0 ± 1.0 × 0.01 mm and the “Suppression Rate of ear thickness increase at 24 hr after Challenge” value was “(80.0%)”. Moreover, in data set [1] (setting [6]), the “Ear Thickness Increase at 48 hr after Challenge” value came to 2.0 ± 1.0 × 0.01 mm and the “Suppression Rate of ear thickness increase at 48 hr after Challenge” value is on record as “(100.0%)”. Moreover, in data set [1] (Table 2, 0.12% ointment), the “Ear Thickness Increase at 4 hr after Challenge” value was 11.0 ± 0.6 × 0.01 mm and the “Suppression Rate of ear thickness increase at 4 hr after Challenge” value is reported as “(60.0%)”. In data set [1] (setting [7]), the “Ear Thickess Increase at 24 hr after Challenge” value (“Ear Thickess Increase at 24 hr” below) is reported as 6.3 ± 2.4 × 0.01 mm and the “Suppression Rate of ear thickness increase at 24 hr after Challenge” value is “(65.8%)”. Moreover, the “Ear Thickness” value in the data set on ear of a normal mouse (0.12% ointment applied twice daily, nine times in total, 2 hours after final application) amounted to 18.3 ± 0.5 × 0.01 mm. In addition, in the data set with ear of a normal mouse (positive control ointment, repeated application), the “influence of repeated application on auricle thickness” value is on record as “significantly reduced the auricle thickness”. Further, the “Suppression Rate of flare-up score at 4 hr after Challenge” value in data set [2] (4 hr after challenge) was “(25.0%)”. The “Flare-up Score at 4 hr after Challenge” value in data set [2] (4 hr after challenge, score 0-3) is given as 0.6 ± 0. Besides, in data set [2] (24 hr after challenge), the “Suppression Rate of flare-up score at 24 hr after Challenge” value was “(40.0%)”. Also, in data set [2] (24 hr after challenge, score 0-3), the “Flare-up Score at 24 hr after Challenge” value amounted to 1.5 ± 0.2.

With `Nc1ccc2c(=O)n(Cc3ccccc3Cl)c(=O)n(-c3ccccc3)c2n1` [Compound 2, 7-amino-3-(2-chlorobenzyl)-1,2,3,4-tetrahydro-1-phenylpyrido[2,3-d]pyrimidin-2,4-dione], in data set [1] (Table 2, 1% ointment), the “Ear Thickness Increase at 4 hr after Challenge” value stood at 19.5 ± 3.2 × 0.01 mm and the “Suppression Rate of ear thickness increase at 4 hr after Challenge” value is “(22.2%)”. Also, in data set [1] (setting [8]), the “Ear Thickess Increase at 24 hr” value was 11.8 ± 2.6 × 0.01 mm and the “Suppression Rate of ear thickness increase at 24 hr after Challenge” value was “(30.3%)”. Moreover, in data set [1] (Table 2, 3% ointment), the “Ear Thickness Increase at 4 hr after Challenge” value is 19.3 ± 2.4 × 0.01 mm and the “Suppression Rate of ear thickness increase at 4 hr after Challenge” value was “(23.1%)”. Besides, in data set [1] (setting [9]), the “Ear Thickess Increase at 24 hr” value was 8.0 ± 1.4 × 0.01 mm and the “Suppression Rate of ear thickness increase at 24 hr after Challenge” value was “(54.8%)”.

Source of the values: US6440978B2, “Therapeutic agent for dermatitis” (Nippon Zoki Pharmaceutical Co., Ltd., priority 2000, dated 2002).
